# Patent publication US10800741B2 (ANCUREALL PHARMACEUTICAL (SHANGHAI) CO., LTD., priority 2017, dated 2020)
# Experiments:
# NCI-H460 = assay: In vitro growth inhibition of PI3KCA amplified/mutant tumor cells NCI-H460; type: cell-based; settings: Homo sapiens, NCI-H460, read-out: IC50 growth inhibition
# Experimental: (§1) Suspension culture cells were collected by centrifugation (1700 rpm, 3 minutes). The supernatant was discarded and the cells were counted. According to each cell growth cycle, different concentrations of cells were prepared (5˜10×10^4 cells per ml), and inoculated to 96-well plates (Corning), with 100 μl per well, and incubated overnight at 37° C., 5% CO2. The next day, the test compound was added to the cultured cells (2 wells in parallel). The final concentration of the solvent was less than 1/1,000. The cells were further cultured for 3 to 5 days and assayed by MTT.
# (§2) The adherent cells were taken out from the cell culture medium, and immediately added to a freshly prepared complete medium containing 10% CCK8 (5% FBS), 100 ul per hole. The suspended cells were directly added to a CCK8 reagent until reaching a final concentration of 10% and cultured for 1 to 4 hours.
# (§3) T=optical density of drug-treated cell wells−optical density of blank control wells; T0=optical density of cell wells before drug treatment−optical density of blank control wells; C=optical density of solvent control wells−optical density of blank control wells. […] The experiments were repeated 1 to 3 times and a statistical analysis of data was conducted.
# HCC1954 = assay: In vitro growth inhibition of PI3KCA amplified/mutant tumor cells HCC1954; type: cell-based; settings: Homo sapiens, HCC1954, read-out: IC50 growth inhibition
# Experimental: as §1, §2, §3
# HCT116 = assay: In vitro growth inhibition of PI3KCA amplified/mutant tumor cells HCT116; type: cell-based; settings: Homo sapiens, HCT-116, read-out: IC50 growth inhibition
# Experimental: as §1, §2, §3
# HGC-27 = assay: In vitro growth inhibition of PI3KCA amplified/mutant tumor cells HGC-27; type: cell-based; settings: Homo sapiens, HGC-27, read-out: IC50 growth inhibition
# Experimental: as §1, §2, §3
# KYSE70 = assay: In vitro growth inhibition of PI3KCA amplified/mutant tumor cells KYSE70; type: cell-based; settings: Homo sapiens, KYSE-70, read-out: IC50 growth inhibition
# Experimental: as §1, §2, §3
# A2780 = assay: In vitro growth inhibition of PI3KCA amplified/mutant tumor cells A2780; type: cell-based; settings: Homo sapiens, A2780, read-out: IC50 growth inhibition
# Experimental: as §1, §2, §3
# SK-OV-3 = assay: In vitro growth inhibition of PI3KCA amplified/mutant tumor cells SK-OV-3; type: cell-based; settings: Homo sapiens, SK-OV-3, read-out: IC50 growth inhibition
# Experimental: as §1, §2, §3
# AGS = assay: In vitro growth inhibition of PI3KCA amplified/mutant tumor cells AGS; type: cell-based; settings: Homo sapiens, read-out: IC50 growth inhibition
# Experimental: as §1, §2, §3
# SW48 = assay: In vitro growth inhibition of PI3KCA amplified/mutant tumor cells SW48; type: cell-based; settings: Homo sapiens, SW48, read-out: IC50 growth inhibition
# Experimental: as §1, §2, §3
# Huh-7 = assay: In vitro growth inhibition of Huh-7 cells; type: cell-based; settings: Homo sapiens, FGFR3+++, FGFR4 +++
# Experimental: as §1, with “Adherent cells were digested with 0.25% trypsin-EDTA (Gibco). Suspension” for “Suspension”
# (§4) The MTT test reagent was a Dojindo CCK8 kit and the Microplate Reader was a THERMO […] FC instrument.
# (§5) The adherent cells were taken out from the cell culture medium, and immediately added to a freshly prepared complete medium containing 10% CCK8 (5% FBS), 100 ul per hole. The suspended cells were directly added to a CCK8 reagent until reaching a final concentration of 10% and cultured for 1 to 4 hours. When a dark yellow color could be observed in the solvent control wells, the absorbance value at OD450 nm was measured and the cell growth rate was calculated according to the following formula: Cell Growth Rate (%)=100×(T−T0)/(C−T0)
# as §3
# (§6) Mutations in the FGFR1-4 gene often occur in different types of cancer patients. In order to test the growth inhibition activity of the present compound against tumor cells expressing different FGFR variants, tumor cell lines expressing representative FGFR1-4 were selected for further determining the activity of compounds 25, 66, 38 and 95 of the present invention. BGJ398, a selective inhibitor of FGFR1-4, was used as the control compound. The specific test method is the same as test example 1.
# KATO III (FGFR2 amp) = assay: In vitro growth inhibition of KATO III tumor cells (MTT/CCK8); type: cell-based, Human; settings: Homo sapiens, KATO III; in vitro growth inhibition (or induction of apoptosis), cells cultured 3 to 5 days, MTT (CCK8); read-out: IC50 KATO III (FGFR2 amp)
# Karpas 299 (NPM-ALK) = assay: In vitro growth inhibition of Karpas 299 tumor cells (MTT/CCK8); type: cell-based, Human; settings: Homo sapiens, KARPAS-299; in vitro growth inhibition (or induction of apoptosis), cells cultured 3 to 5 days, MTT (CCK8); read-out: IC50 Karpas 299 (NPM-ALK)
# A375 = assay: In vitro growth inhibition of A375 cells; type: cell-based; settings: Homo sapiens, A-375, BRAF V600E, FGFR2 mutant
# Experimental: as §1, with “Adherent cells were digested with 0.25% trypsin-EDTA (Gibco). Suspension” for “Suspension”
# as §4, §5, §3, §6
# DMS114 = assay: In vitro growth inhibition of DMS114 cells; type: cell-based; settings: Homo sapiens, DMS-114, FGFR1 amp
# Experimental: as §1, with “Adherent cells were digested with 0.25% trypsin-EDTA (Gibco). Suspension” for “Suspension”
# as §4, §5, §3, §6
# SNU-16 = assay: In vitro growth inhibition of SNU-16 cells; type: cell-based; settings: Homo sapiens, FGFR2 amp
# Experimental: as §1, with “Adherent cells were digested with 0.25% trypsin-EDTA (Gibco). Suspension” for “Suspension”
# as §4, §5, §3, §6
# MOLM-13 (FLT3-ITD) = assay: In vitro growth inhibition of MOLM-13 tumor cells (MTT/CCK8); type: cell-based, Human; settings: Homo sapiens, MOLM-13; in vitro growth inhibition (or induction of apoptosis), cells cultured 3 to 5 days, MTT (CCK8); read-out: IC50 MOLM-13 (FLT3-ITD)
# MFM-223 = assay: In vitro growth inhibition of MFM-223 cells; type: cell-based; settings: Homo sapiens, PI3KCA H1047R, FGFR1 amp, FGFR2 amp
# Experimental: as §1, with “Adherent cells were digested with 0.25% trypsin-EDTA (Gibco). Suspension” for “Suspension”
# as §4, §5, §3, §6
# AN3-CA = assay: In vitro growth inhibition of AN3-CA cells; type: cell-based; settings: Homo sapiens, FGFR2 mutant
# Experimental: as §1, with “Adherent cells were digested with 0.25% trypsin-EDTA (Gibco). Suspension” for “Suspension”
# as §4, §5, §3, §6
# MDA-MB-453 = assay: In vitro growth inhibition of MDA-MB-453 cells; type: cell-based; settings: Homo sapiens, PI3KCA H1047R, FGFR4+++/Y367C
# Experimental: as §1, with “Adherent cells were digested with 0.25% trypsin-EDTA (Gibco). Suspension” for “Suspension”
# as §4, §5, §3, §6
# Hep G2 = assay: In vitro growth inhibition of Hep G2 cells; type: cell-based; settings: Homo sapiens, HepG2, FGFR3+++, FGFR4 +++
# Experimental: as §1, with “Adherent cells were digested with 0.25% trypsin-EDTA (Gibco). Suspension” for “Suspension”
# as §4, §5, §3, §6
# H1703 (PDGFRa amp) = assay: In vitro growth inhibition of H1703 tumor cells (MTT/CCK8); type: cell-based, Human; settings: Homo sapiens, NCI-H1703; in vitro growth inhibition (or induction of apoptosis), cells cultured 3 to 5 days, MTT (CCK8); read-out: IC50 H1703 (PDGFRa amp)
# RT112/84 = assay: In vitro growth inhibition of RT112/84 cells; type: cell-based; settings: Homo sapiens, FGFR3-TACC3
# Experimental: as §1, with “Adherent cells were digested with 0.25% trypsin-EDTA (Gibco). Suspension” for “Suspension”
# as §4, §5, §3, §6
# PLC/PRF/5 = assay: In vitro growth inhibition of PLC/PRF/5 cells; type: cell-based; settings: Homo sapiens, FGFR3+++, FGFR4 +++
# Experimental: as §1, with “Adherent cells were digested with 0.25% trypsin-EDTA (Gibco). Suspension” for “Suspension”
# as §4, §5, §3, §6
# Hep3B2 (FGFR3/4+++) = assay: In vitro growth inhibition of Hep3B2 tumor cells (MTT/CCK8); type: cell-based, Human; settings: Homo sapiens, Hep3B; in vitro growth inhibition (or induction of apoptosis), cells cultured 3 to 5 days, MTT (CCK8); read-out: IC50 Hep3B2 (FGFR3/4+++)
# JIMT-1 = assay: In vitro growth inhibition of JIMT-1 cells; type: cell-based; settings: Homo sapiens, FGFR1 amp, HER2 amp, PI3KCA C420R
# Experimental: as §1, with “Adherent cells were digested with 0.25% trypsin-EDTA (Gibco). Suspension” for “Suspension”
# as §4, §5, §3, §6
# H1581 (FGFR1 amp) = assay: In vitro growth inhibition of H1581 tumor cells (MTT/CCK8); type: cell-based, Human; settings: Homo sapiens, NCI-H1581; in vitro growth inhibition (or induction of apoptosis), cells cultured 3 to 5 days, MTT (CCK8); read-out: IC50 H1581 (FGFR1 amp)
# JHH-7 = assay: In vitro growth inhibition of JHH-7 cells; type: cell-based; settings: Homo sapiens, JHH7, FGFR3+++, FGFR4 +++
# Experimental: as §1, with “Adherent cells were digested with 0.25% trypsin-EDTA (Gibco). Suspension” for “Suspension”
# as §4, §5, §3, §6
# KCL-22 (BCR-ABL) = assay: In vitro growth inhibition of KCL-22 tumor cells (MTT/CCK8); type: cell-based, Human; settings: Homo sapiens, KCL-22; in vitro growth inhibition (or induction of apoptosis), cells cultured 3 to 5 days, MTT (CCK8); read-out: IC50 KCL-22 (BCR-ABL)
# Cal-120 = assay: In vitro growth inhibition of Cal-120 cells; type: cell-based; settings: Homo sapiens, FGFR1 amp
# Experimental: as §1, with “Adherent cells were digested with 0.25% trypsin-EDTA (Gibco). Suspension” for “Suspension”
# as §4, §5, §3, §6
# Kasumi-1 (KIT N822K) = assay: In vitro growth inhibition of Kasumi-1 tumor cells (MTT/CCK8); type: cell-based, Human; settings: Homo sapiens, Kasumi 1; in vitro growth inhibition (or induction of apoptosis), cells cultured 3 to 5 days, MTT (CCK8); read-out: IC50 Kasumi-1 (KIT N822K)
smiles,measurement,setting,value
"COc1c(OCCCN2CCOCC2)ccc2c1N=C(NC(=O)c1cnc(N)nc1)N1CCN=C21 [BAY 80-6946, reference compound]",IC50,NCI-H460,30.4 nM
same,IC50,HCC1954,6.8 nM
same,IC50,HCT116,65.1 nM
same,IC50,HGC-27,17.3 nM
same,IC50,KYSE70,19.7 nM
same,IC50,A2780,9.67 nM
same,IC50,SK-OV-3,10.2 nM
same,IC50,AGS,39.5 nM
same,IC50,SW48,27.5 nM
"COc1cc2nccc(Oc3ccc(NC(=O)Nc4cc(C(C)(C)C)n[nH]4)c(Cl)c3)c2cc1C(N)=O [Compound 25, 4-{4-[3-(5-tert-butyl-2H-pyrazol-3-yl)-ureido]-3-chloro-phenoxy}-7-methoxyquinolin-6-carboxamide]",IC50,Huh-7,7.12 nM
same,IC50,KATO III (FGFR2 amp),0.24 nM
same,IC50,Karpas 299 (NPM-ALK),600 nM
same,IC50,A375,129 nM
same,IC50,DMS114,15.6 nM
same,IC50,SNU-16,1.95 nM
same,IC50,MOLM-13 (FLT3-ITD),19.1 nM
same,IC50,MFM-223,21.6 nM
same,IC50,AN3-CA,4.95 nM
same,IC50,MDA-MB-453,309 nM
same,IC50,Hep G2,127 nM
same,IC50,H1703 (PDGFRa amp),13.5 nM
same,IC50,RT112/84,31.5 nM
same,IC50,PLC/PRF/5,2.95 nM
same,IC50,Hep3B2 (FGFR3/4+++),14.2 nM
same,IC50,JIMT-1,467 nM
same,IC50,H1581 (FGFR1 amp),9.7 nM
same,IC50,JHH-7,4.88 nM
same,IC50,KCL-22 (BCR-ABL),16.4 nM
same,IC50,Cal-120,64.7 nM
same,IC50,Kasumi-1 (KIT N822K),44 nM
